Earlier results, collected in patent EP4286484B1, “AQUEOUS PRETREATMENT LIQUID, INK SET, PRINTED ITEM, AND SEPARATION METHOD” (priority 2022, dated 2023).

Conditions: anhydrous calcium salt of the named counter anion

solubility of the corresponding anhydrous calcium salt in 100 g of water at 20°C: 2 g
SMILES: O=C([O-])c1ccccc1.O=C([O-])c1ccccc1.[Ca+2] [benzoate ion]
